This is an account of results in patent US9040545B2, “Heterocyclyl pyrazolopyrimidine analogues as selective JAK inhibitors” (Cellzome Limited, priority 2010, dated 2015).

One assay deals with T1, Aurora B (Homo sapiens, UniProt Q96GD4).
T1 construct: cell lysates from Jurkat cells (ATCC TIB-152) used; endogenous in cells; host or cells: Jurkat cells (ATCC TIB-152), treated with pervanadate
Nature of the assay: Kinobeads assay, Aurora B. The assay is classed as binding. Particulars: for IC50: lysate of pervanadate-treated Jurkat cells, read-out: Inhibition values (IC50) Aur B. As for the experimental part:
(§1) The compounds of the present invention as described in the previous examples were tested in a Kinobeads™ assay as described for ZAP-70 (WO-A 2007/137867). Briefly, test compounds (at various concentrations) and the affinity matrix with the immobilized aminopyrido-pyrimidine ligand 24 were added to cell lysate aliquots and allowed to bind to the proteins in the lysate sample. After the incubation time the beads with captured proteins were separated from the lysate. Bound proteins were then eluted and the presence of JAK2 and JAK3 was detected and quantified using specific antibodies in a dot blot procedure and the Odyssey infrared detection system. Dose response curves for individual kinases were generated and IC50 values calculated. Kinobeads™ assays for ZAP-70 (WO-A 2007/137867) and for kinase selectivity profiling (WO-A 2006/134056) have been previously described.
(§2) The affinity matrix was washed two times with 15 mL of 1×DP buffer containing 0.2% NP40 (IGEPAL® CA-630, Sigma, #I3021) and then resuspended in 1×DP buffer containing 0.2% NP40 (3% beads slurry).
(§3) 5×DP buffer 250 mM Tris-HCl pH 7.4, 25% Glycerol, 7.5 mM MgCl2, 750 mM NaCl, 5 mM Na3VO4; filter the 5×DP buffer through a 0.22 μm filter and store in aliquots at −80° C. The 5×DP buffer is diluted with H2O to 1×DP buffer containing 1 mM DTT and 25 mM NaF.
(§4) Stock solutions of test compounds were prepared in DMSO. In a 96 well plate 30 μL solution of diluted test compounds at 5 mM in DMSO were prepared. Starting with this solution a 1:3 dilution series (9 steps) was prepared. For control experiments (no test compound) a buffer containing 2% DMSO was used.
(§5) Cell lysate (approximately 50 mg protein per plate) was thawed in a water bath at room temperature and then stored on ice. To the thawed cell lysate 1×DP 0.8% NP40 buffer containing protease inhibitors (1 tablet for 25 mL buffer; EDTA-free protease inhibitor cocktail; Roche Diagnostics 1873580) was added in order to reach a final protein concentration of 10 mg/mL total protein. The diluted cell lysate was stored on ice. Mixed Molt4/Ramos lysate was prepared by combining one volume of Molt4 lysate and two volumes of Ramos lysate (ratio 1:2).
(§6) To a 96 well filter plate (Multiscreen HTS, BV Filter Plates, Millipore #MSBVN1250) were added per well: 100 μL affinity matrix (3% beads slurry), 3 μL of compound solution, and 50 μL of diluted lysate. Plates were sealed and incubated for 3 hours in a cold room on a plate shaker (Heidolph tiramax 1000) at 750 rpm. Afterwards the plate was washed 3 times with 230 μL washing buffer (1×DP 0.4% NP40). The filter plate was placed on top of a collection 1 plate (Greiner bio-one, PP-microplate 96 well V-shape, 65120) and the beads were then eluted with 20 μL of sample buffer (100 mM Tris, pH 7.4, 4% SDS, 0.00025% bromophenol blue, 20% glycerol, 50 mM DTT). The eluate was frozen quickly at −80° C. and stored at −20° C.
(§7) The kinases in the eluates were detected and quantified by spotting on nitrocellulose membranes and using a first antibody directed against the kinase of interest and a fluorescently labelled secondary antibody (anti-rabbit IRDye™ antibody 800 (Licor, #926-32211). The Odyssey Infrared Imaging system from LI-COR Biosciences (Lincoln, Nebr., USA) was operated according to instructions provided by the manufacturer (Schutz-Geschwendener et al, 2004. Quantitative, two-color Western blot detection with infrared fluorescence. Published May 2004 by LI-COR Biosciences, www.licor.com).
(§8) After spotting of the eluates the nitrocellulose membrane (BioTrace NT; PALL, #BTNT30R) was first blocked by incubation with Odyssey blocking buffer (LICOR, 927-40000) for 1 hour at room temperature. Blocked membranes were then incubated for 16 hours at the temperature shown in Table 5 with the first antibody diluted in Odyssey blocking buffer (LICOR #927-40000). Afterwards the membrane was washed twice for 10 minutes with PBS buffer containing 0.2% Tween 20 at room temperature. […]

Another assay concerns the target T2, Aurora A (Homo sapiens, UniProt O14965).
T2 construct: cell lysates from Jurkat cells (ATCC TIB-152) used; endogenous in cells; host or cells: Jurkat cells (ATCC TIB-152), treated with pervanadate
T2 sequence (O14965 1-403): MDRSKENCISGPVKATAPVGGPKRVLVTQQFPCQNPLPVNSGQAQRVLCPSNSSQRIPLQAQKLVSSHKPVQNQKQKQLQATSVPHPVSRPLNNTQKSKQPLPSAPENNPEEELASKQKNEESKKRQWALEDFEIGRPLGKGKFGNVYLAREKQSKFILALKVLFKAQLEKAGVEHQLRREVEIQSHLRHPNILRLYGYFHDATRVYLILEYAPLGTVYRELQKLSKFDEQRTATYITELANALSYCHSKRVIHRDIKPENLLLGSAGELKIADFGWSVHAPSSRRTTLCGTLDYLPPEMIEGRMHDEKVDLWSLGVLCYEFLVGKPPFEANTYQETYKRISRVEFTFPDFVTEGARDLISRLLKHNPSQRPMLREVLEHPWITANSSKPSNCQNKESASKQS
Nature of the assay: Kinobeads assay, Aurora A. Particulars: for IC50: lysate of pervanadate-treated Jurkat cells, read-out: Inhibition values (IC50) Aur A. The assay is classed as binding. As for the experimental part:
as §1, §2, §3, §4, §5, §6, §7, §8

Broadly, the IC50 is the concentration needed to halve the response being measured.

T1 sequence (Q96GD4 whole entry): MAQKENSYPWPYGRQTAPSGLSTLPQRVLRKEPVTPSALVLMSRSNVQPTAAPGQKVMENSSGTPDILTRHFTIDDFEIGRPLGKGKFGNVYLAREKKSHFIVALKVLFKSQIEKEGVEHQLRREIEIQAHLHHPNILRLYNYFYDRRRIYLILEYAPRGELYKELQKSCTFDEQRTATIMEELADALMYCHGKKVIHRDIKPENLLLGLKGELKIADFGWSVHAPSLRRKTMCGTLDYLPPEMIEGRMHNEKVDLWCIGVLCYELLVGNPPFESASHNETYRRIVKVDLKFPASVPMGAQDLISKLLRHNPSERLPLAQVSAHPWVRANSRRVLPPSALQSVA

For `OCCCn1cc(Nc2ncc3cnn(Cc4cccc(N5CCOCC5)c4)c3n2)cn1` [Example 18, 3-(4-((1-(3-Morpholinobenzyl)-1H-pyrazolo[3,4-d]pyrimidin-6-yl)amino)-1H-pyrazol-1-yl)propan-1-ol], at Aurora B, the “JAK3/AurB Fold Selectivity” value is recorded as over 50 Fold and the IC50 fell in the range of 0.1 to 1 µM. On Aurora A, the “JAK3/AurA Fold Selectivity” value is listed as 10-50 Fold and the IC50 lay within 0.1 to 1 µM.
On to `CNCCCn1cc(Nc2ncc3cnn(Cc4cc(F)cc(N5CCOCC5=O)c4)c3n2)cn1` [Example 99, 4-(3-fluoro-5-((6-((1-(3-(methylamino)propyl)-1H-pyrazol-4-yl)amino)-1H-pyrazolo[3,4-d]pyrimidin-1-yl)methyl)phenyl)morpholin-3-one], for which, at Aurora B, the “JAK3/AurB Fold Selectivity” value was 3-10 Fold and the IC50 is under 0.1 µM. Also, at Aurora A, the “JAK3/AurA Fold Selectivity” value is reported as 3-10 Fold and the IC50 was under 0.1 µM.
For the compound `CC(CN(C)C)Cn1cc(Nc2ncc3cnn(Cc4cccc(N5CCOCC5)c4)c3n2)cn1` (centres unmarked) [Example 32, N-(1-(3-(Dimethylamino)-2-methylpropyl)-1H-pyrazol-4-yl)-1-(3-morpholinobenzyl)-1H-pyrazolo[3,4-d]pyrimidin-6-amine], on Aurora B, the “JAK3/AurB Fold Selectivity” value was over 50 Fold and the IC50 was in the range of 1 to 10 µM. Moreover, on Aurora A, the “JAK3/AurA Fold Selectivity” value was 10-50 Fold and the IC50 is 1 to 10 µM.
As for `Cn1cc(Nc2ncc3cnn(Cc4cccc(-c5cnn(C)c5)c4)c3n2)cn1` [Example 115, N-(1-methyl-1H-pyrazol-4-yl)-1-(3-(1-methyl-1H-pyrazol-4-yl)benzyl)-1H-pyrazolo[3,4-d]pyrimidin-6-amine], on Aurora B, the “JAK3/AurB Fold Selectivity” value was over 50 Fold and the IC50 is 1 to 10 µM. Further, on Aurora A, the “JAK3/AurA Fold Selectivity” value is 10-50 Fold and the IC50 lay in the range of 0.1 to 1 µM.
On to `Cn1cc(Nc2ncc3cnn(Cc4cccc(-c5cnn(CCO)c5)c4)c3n2)cn1` [Example 121, 2-(4-(3-((6-((1-methyl-1H-pyrazol-4-yl)amino)-1H-pyrazolo[3,4-d]pyrimidin-1-yl)methyl)phenyl)-1H-pyrazol-1-yl)ethanol], for which, at Aurora B, the “JAK3/AurB Fold Selectivity” value is reported as 10-50 Fold and the IC50 was 1 to 10 µM. Moreover, on Aurora A, the “JAK3/AurA Fold Selectivity” value was 10-50 Fold and the IC50 was 0.1 to 1 µM.
On to `Cn1cc(Nc2ncc3cnn(Cc4cccc(N5CCOCC5=O)c4)c3n2)cn1` [Example 27, 4-(3-((6-((1-Methyl-1H-pyrazol-4-yl)amino)-1H-pyrazolo[3,4-d]pyrimidin-1-yl)methyl)phenyl)morpholin-3-one], for which, at Aurora B, the “JAK3/AurB Fold Selectivity” value was 10-50 Fold and the IC50 was 0.1 to 1 µM. At Aurora A, the “JAK3/AurA Fold Selectivity” value is on record as 10-50 Fold and the IC50 lay in the range of 0.1 to 1 µM.
Take `O=C1COCCN1c1cc(F)cc(Cn2ncc3cnc(Nc4cnn(CCS(=O)(=O)NC5CC5)c4)nc32)c1` [Example 106, N-cyclopropyl-2-(4-((1-(3-fluoro-5-(3-oxomorpholino)benzyl)-1H-pyrazolo[3,4-d]pyrimidin-6-yl)amino)-1H-pyrazol-1-yl)ethanesulfonamide]: on Aurora B, the “JAK3/AurB Fold Selectivity” value was 10-50 Fold and the IC50 was in the range of 0.1 to 1 µM. Besides, on Aurora A, the “JAK3/AurA Fold Selectivity” value is 10-50 Fold and the IC50 lay within 0.1 to 1 µM.
`Cn1cc(Nc2ncc3cnn(Cc4cccc(N5CCC6(COC6)C5)c4)c3n2)cn1` [Example 104, 1-(3-(2-oxa-6-azaspiro[3.4]octan-6-yl)benzyl)-N-(1-methyl-1H-pyrazol-4-yl)-1H-pyrazolo[3,4-d]pyrimidin-6-amine]: at Aurora B, the “JAK3/AurB Fold Selectivity” value was 10-50 Fold and the IC50 lay in the range of 1 to 10 µM. For the same compound, on Aurora A, the “JAK3/AurA Fold Selectivity” value is 10-50 Fold and the IC50 lay in the range of 0.1 to 1 µM.
For `Cn1cc(Nc2ncc3cnn(Cc4cc(F)cc(N5CCNCC5)c4)c3n2)cn1` [Example 92, 1-(3-fluoro-5-(piperazin-1-yl)benzyl)-N-(1-methyl-1H-pyrazol-4-yl)-1H-pyrazolo[3,4-d]pyrimidin-6-amine], on Aurora B, the “JAK3/AurB Fold Selectivity” value is recorded as over 50 Fold and the IC50 fell in the range of 0.1 to 1 µM. In addition, on Aurora A, the “JAK3/AurA Fold Selectivity” value is listed as 10-50 Fold and the IC50 was 0.1 to 1 µM.
Regarding `Cn1cc(-c2cccc(Cn3ncc4cnc(Nc5cnn(CCO)c5)nc43)c2)cn1` [Example 122, 2-(4-((1-(3-(1-methyl-1H-pyrazol-4-yl)benzyl)-1H-pyrazolo[3,4-d]pyrimidin-6-yl)amino)-1H-pyrazol-1-yl)ethanol], at Aurora B, the “JAK3/AurB Fold Selectivity” value is over 50 Fold and the IC50 was 0.1 to 1 µM. For the same compound, at Aurora A, the “JAK3/AurA Fold Selectivity” value was 10-50 Fold and the IC50 lay within 0.1 to 1 µM.
For the compound `Fc1cc(N2CCOCC2)c(F)c(Cn2ncc3cnc(Nc4cnn(CC5CCNC5)c4)nc32)c1F` (centres unmarked) [Example 94, N-(1-(pyrrolidin-3-ylmethyl)-1H-pyrazol-4-yl)-1-(2,3,6-trifluoro-5-morpholinobenzyl)-1H-pyrazolo[3,4-d]pyrimidin-6-amine], on Aurora B, the “JAK3/AurB Fold Selectivity” value is over 50 Fold and the IC50 fell in the range of 1 to 10 µM. Also, on Aurora A, the “JAK3/AurA Fold Selectivity” value was over 50 Fold and the IC50 is 1 to 10 µM.
For `Cn1cc(Nc2ncc3cnn(Cc4cc(-c5cnn(C)c5)cc(F)c4F)c3n2)cn1` [Example 126, 1-(2,3-difluoro-5-(1-methyl-1H-pyrazol-4-yl)benzyl)-N-(1-methyl-1H-pyrazol-4-yl)-1H-pyrazolo[3,4-d]pyrimidin-6-amine], on Aurora B, the “JAK3/AurB Fold Selectivity” value is over 50 Fold and the IC50 was at least 10 µM. For the same compound, at Aurora A, the “JAK3/AurA Fold Selectivity” value is listed as over 50 Fold and the IC50 was in the range of 1 to 10 µM.
`Cn1cc(Nc2ncc3cnn(Cc4cccc(N5CCOCC5)c4Cl)c3n2)cn1` [Example 103, 1-(2-chloro-3-morpholinobenzyl)-N-(1-methyl-1H-pyrazol-4-yl)-1H-pyrazolo[3,4-d]pyrimidin-6-amine]: at Aurora B, the “JAK3/AurB Fold Selectivity” value was 3-10 Fold and the IC50 fell in the range of 0.1 to 1 µM. On Aurora A, the “JAK3/AurA Fold Selectivity” value is on record as 3-10 Fold and the IC50 was under 0.1 µM.
With `Cn1cc(Nc2ncc3cnn(Cc4cccc(NC5COC5)c4)c3n2)cn1` [Example 114, N-(1-methyl-1H-pyrazol-4-yl)-1-(3-(oxetan-3-ylamino)benzyl)-1H-pyrazolo[3,4-d]pyrimidin-6-amine], on Aurora B, the “JAK3/AurB Fold Selectivity” value was 10-50 Fold and the IC50 lay within 0.1 to 1 µM. Moreover, on Aurora A, the “JAK3/AurA Fold Selectivity” value is given as 3-10 Fold and the half-maximal inhibitory concentration (IC50) was under 0.1 µM.
